# Patent US4452814A, “Nitrosourea derivatives” (priority 1981, dated 1984)
# Assays:
# [1] = test system: experimental leukemia and tumors; settings: wide variety of experimental leukemia and tumors; cited from earlier work
# [2] = Acute toxicity (LD50) in BDF1 male mice, i.p. or i.v., Litchfield-Wilcoxon's method; type: in vivo; settings: BDF1 male mice about 6 weeks old, observed after 21 days
# Source text: The nitrosourea derivatives of formulae (I), (II) and (III) according to this invention are further characterized by their low toxicity. Thus, acute toxicity represented by LD50 of some typical compounds of formula (I), when administered intraperitoneally (i.p.) or intravenously (i.v.) to BDF1 male mice aged about 6-weeks old and observed after the lapse of 21 days according to Litchfield-Wilcoxon's method, is as follows: […]
# Leukemia L 1210 cells = experiment: Antileukemic activity on Leukemia L 1210 in mice (i.p. inoculated, compound i.p.); type: in vivo, Male BDF1 mice; settings: for Mean survival days, treated: control 7.7
# Experimental: Antileukemic activity of a typical nitrosourea derivative of formula (I) according to this invention was tested on Leukemia L 1210 in mice, details of which are given below.
# Male BDF1 mice, aged about 7 weeks old and weighing 22±1 g were used in groups of five animals for each test.
# Leukemia L 1210 cells were inoculated intraperitoneally in a concentration of 1×10^6 cells/0.05 ml/mouse.
# The test compound was dissolved in a physiological salt solution to give a series of solutions in predetermined concentrations and 0.1 ml of the each solution was administered intraperitoneally to each mouse once a day from the 24th hour after the tumor cell inoculation for 3 consecutive days. The antileukemic activity of the test compound was assessed by mean survival days and percentage increase in life-span. The percentage increase in life-span (ILS) was calculated as follows: [formula] T: The mean survival days of the treated animals C: The mean survival days of the untreated animals
# The control test for this purpose was carried out in the same way as that used for the test compound except that 0.1 ml of the physiological salt solution was administered in place of the solution of the test compound.
# [3] = 0.5 mg/kg i.p. once a day for 3 days
# [4] = 1 mg/kg i.p. once a day for 3 days
# [5] = 2 mg/kg i.p. once a day for 3 days
# [6] = 8 mg/kg i.p. once a day for 3 days
# [7] = 16 mg/kg i.p. once a day for 3 days
smiles,measurement,setting,value
"O=NN(CCCl)C(=O)N[C@H]1[C@H](O)CCC[C@@H]1O [DONU, 1-(2-chloroethyl)-3-(1,3/2N-dihydroxycyclohexyl)-1-nitrosourea]","antitumor activity, in words",[1],broad spectrum of antitumor activity
"O=NN(CCCl)C(=O)N[C@@H]1O[C@H](CO)[C@@H](O)[C@H](O)[C@H]1O [GANU, 1-(2-chloroethyl)-3-(β-D-glucopyranosyl)-1-nitrosourea]","antitumor activity, in words",[1],broad spectrum of antitumor activity
NC(=O)C1CCCN1C(=O)N(CCCl)N=O (stereo not drawn) [N-[N'-(2-chloroethyl)-N'-nitrosocarbamoyl]-proline amide],LD50,[2]; i.p.,219.6 mg/kg
same,LD50,[2]; i.v.,195.4 mg/kg
NC(=O)CNC(=O)N(CCCl)N=O [N-[N'-(2-chloroethyl)-N'-nitrosocarbamoyl]glycine amide],ILS (percentage increase in life-span),Leukemia L 1210 cells; [3],32.5%
same,"Mean survival days, treated",Leukemia L 1210 cells; [3],10.2 days
same,ILS (percentage increase in life-span),Leukemia L 1210 cells; [4],37.7%
same,"Mean survival days, treated",Leukemia L 1210 cells; [4],10.6 days
same,ILS (percentage increase in life-span),Leukemia L 1210 cells; [5],81.8%
same,"Mean survival days, treated",Leukemia L 1210 cells; [5],14.0 days
same,ILS (percentage increase in life-span),Leukemia L 1210 cells; [6],> 679.2%
same,"Mean survival days, treated",Leukemia L 1210 cells; [6],> 60.0 days
same,ILS (percentage increase in life-span),Leukemia L 1210 cells; [7],> 679.2%
same,"Mean survival days, treated",Leukemia L 1210 cells; [7],> 60.0 days
same,LD50,[2]; i.v.,22.4 mg/kg
same,LD50 at 504 h,"[2]; mouse, in vivo, ip",21.2 mg/kg
CN(CC(N)=O)C(=O)N(CCCl)N=O [N-[N'-(2-chloroethyl)-N'-nitrosocarbamoyl]sarcosine amide],LD50,[2]; i.p.,392.0 mg/kg
same,LD50,[2]; i.v.,426.6 mg/kg
